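How tested: cells in 96-well plates exposed to compound for 48 hours at five concentrations. Abbreviation: GI50, concentration required for 50% inhibition of growth.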 Calls of active or inactive are those of the source. Rule as the data show it: active = GI50 up to about 1.1 µM and inactive = higher.
What was measured:
Test in all cases: inhibition of tumour cell growth, NCI panel, 48 h
[1] = test system: 786-0
[2] = test system: A498
[3] = test system: A549
[4] = test system: ACHN
[5] = test system: CAKI-1
[6] = test system: COLO 205
[7] = test system: DLD-1
[8] = test system: DMS-273
[9] = test system: EKVX
[10] = test system: HCT-116
[11] = test system: HCT-15
[12] = test system: HOP-18
[13] = test system: HOP-62
[14] = test system: HOP-92
[15] = test system: HT-29
[16] = test system: IGROV-1
[17] = test system: K562
[18] = test system: KM-20L2
[19] = test system: KM12
[20] = test system: LOX IMVI
[21] = test system: M19-MEL
[22] = test system: Malme-3M
[23] = test system: NCI-H23
[24] = test system: NCI-H460
[25] = test system: OVCAR-3
[26] = test system: OVCAR-4
[27] = test system: OVCAR-5
[28] = test system: OVCAR-8
[29] = test system: RPMI-8226
[30] = test system: RXF 393
[31] = test system: SF-268
[32] = test system: SF-295
[33] = test system: SF-539
[34] = test system: SK-MEL-28
[35] = test system: SK-MEL-2
[36] = test system: SK-MEL-5
[37] = test system: SN12C
[38] = test system: SNB-19
[39] = test system: SNB-75
[40] = test system: SNB-78
[41] = test system: SR
[42] = test system: SW-620
[43] = test system: TK-10
[44] = test system: U-251
[45] = test system: UACC-257
[46] = test system: UACC-62
[47] = test system: XF498
[48] = test system: CCRF-CEM
[49] = test system: DMS-114
[50] = test system: HCC 2998
[51] = test system: HL-60
[52] = test system: MCF7
[53] = test system: MOLT-4
[54] = test system: NCI-H226
[55] = test system: NCI-H522
[56] = test system: NCI/ADR-RES
[57] = test system: SK-OV-3
[58] = test system: UO-31
[59] = test system: LXFL 529
[60] = test system: M14

COc1ccc(C(CCC(C)=O)C(=O)O)cc1OC (stereo not drawn)
GI50 [1]: > 100 µM (inactive)
GI50 [2]: > 100 µM (inactive)
GI50 [3]: > 100 µM (inactive)
GI50 [4]: > 100 µM (inactive)
GI50 [5]: > 100 µM (inactive)
GI50 [6]: > 100 µM (inactive)
GI50 [7]: > 100 µM (inactive)
GI50 [8]: > 100 µM (inactive)
GI50 [9]: > 100 µM (inactive)
GI50 [10]: > 100 µM (inactive)
GI50 [11]: > 100 µM
GI50 [12]: > 100 µM (inactive)
GI50 [13]: > 100 µM (inactive)
GI50 [14]: > 100 µM (inactive)
GI50 [15]: > 100 µM (inactive)
GI50 [16]: > 100 µM (inactive)
GI50 [17]: > 100 µM (inactive)
GI50 [18]: > 100 µM (inactive)
GI50 [19]: > 100 µM (inactive)
GI50 [20]: > 100 µM (inactive)
GI50 [21]: > 100 µM (inactive)
GI50 [22]: > 100 µM (inactive)
GI50 [23]: > 100 µM (inactive)
GI50 [24]: > 100 µM (inactive)
GI50 [25]: > 100 µM (inactive)
GI50 [26]: > 100 µM (inactive)
GI50 [27]: > 100 µM (inactive)
GI50 [28]: > 100 µM (inactive)
GI50 [29]: > 100 µM (inactive)
GI50 [30]: > 100 µM (inactive)
GI50 [31]: > 100 µM (inactive)
GI50 [32]: > 100 µM (inactive)
GI50 [33]: > 100 µM (inactive)
GI50 [34]: > 100 µM (inactive)
GI50 [35]: > 100 µM (inactive)
GI50 [36]: > 100 µM (inactive)
GI50 [37]: > 100 µM (inactive)
GI50 [38]: > 100 µM (inactive)
GI50 [39]: > 100 µM (inactive)
GI50 [40]: > 100 µM (inactive)
GI50 [41]: > 100 µM (inactive)
GI50 [42]: > 100 µM (inactive)
GI50 [43]: > 100 µM (inactive)
GI50 [44]: > 100 µM (inactive)
GI50 [45]: > 100 µM (inactive)
GI50 [46]: > 100 µM (inactive)
GI50 [47]: > 100 µM (inactive)

CC(C)[C@](O)(C(=O)OCC1=CCN2CC[C@@H](O)[C@@H]12)[C@H](C)O
GI50 [2]: > 375 µM (inactive)
GI50 [3]: > 375 µM (inactive)
GI50 [5]: > 375 µM (inactive)
GI50 [48]: > 375 µM (inactive)
GI50 [6]: > 375 µM (inactive)
GI50 [7]: > 375 µM (inactive)
GI50 [49]: 368 µM (inactive)
GI50 [8]: > 375 µM (inactive)
GI50 [9]: > 375 µM (inactive)
GI50 [50]: > 375 µM (inactive)
GI50 [10]: > 375 µM (inactive)
GI50 [11]: > 375 µM
GI50 [51]: > 375 µM (inactive)
GI50 [12]: > 375 µM (inactive)
GI50 [13]: > 335 µM (inactive)
GI50 [14]: > 375 µM (inactive)
GI50 [15]: > 375 µM (inactive)
GI50 [16]: > 308 µM (inactive)
GI50 [17]: > 375 µM (inactive)
GI50 [18]: > 375 µM (inactive)
GI50 [19]: > 375 µM (inactive)
GI50 [20]: > 174 µM (inactive)
GI50 [21]: > 255 µM (inactive)
GI50 [52]: > 375 µM (inactive)
GI50 [53]: > 375 µM (inactive)
GI50 [22]: > 375 µM (inactive)
GI50 [54]: > 375 µM (inactive)
GI50 [23]: > 375 µM (inactive)
GI50 [24]: > 367 µM (inactive)
GI50 [55]: 59.4 µM (inactive)
GI50 [56]: > 375 µM (inactive)
GI50 [25]: > 375 µM (inactive)
GI50 [26]: > 375 µM (inactive)
GI50 [27]: > 278 µM (inactive)
GI50 [28]: > 375 µM (inactive)
GI50 [29]: > 375 µM (inactive)
GI50 [30]: > 375 µM (inactive)
GI50 [31]: > 375 µM (inactive)
GI50 [32]: > 375 µM (inactive)
GI50 [33]: > 375 µM (inactive)
GI50 [34]: > 375 µM (inactive)
GI50 [35]: > 375 µM (inactive)
GI50 [36]: > 80.7 µM (inactive)
GI50 [57]: > 375 µM (inactive)
GI50 [37]: > 375 µM (inactive)
GI50 [38]: > 375 µM (inactive)
GI50 [39]: > 375 µM (inactive)
GI50 [40]: > 375 µM (inactive)
GI50 [42]: > 237 µM (inactive)
GI50 [44]: > 375 µM (inactive)
GI50 [45]: > 375 µM (inactive)
GI50 [46]: > 375 µM (inactive)
GI50 [58]: > 375 µM (inactive)
GI50 [47]: > 375 µM (inactive)

CC(=O)c1ccc2c(ccc(=O)n2C)c1
GI50 [1]: > 100 µM (inactive)
GI50 [2]: > 100 µM (inactive)
GI50 [3]: > 100 µM (inactive)
GI50 [5]: > 100 µM (inactive)
GI50 [48]: > 100 µM (inactive)
GI50 [6]: > 100 µM (inactive)
GI50 [7]: > 100 µM (inactive)
GI50 [49]: > 100 µM (inactive)
GI50 [8]: > 100 µM (inactive)
GI50 [9]: > 100 µM (inactive)
GI50 [50]: > 100 µM (inactive)
GI50 [10]: > 100 µM (inactive)
GI50 [11]: > 100 µM
GI50 [51]: > 100 µM (inactive)
GI50 [12]: > 100 µM (inactive)
GI50 [13]: > 100 µM (inactive)
GI50 [14]: > 100 µM (inactive)
GI50 [15]: > 100 µM (inactive)
GI50 [16]: > 100 µM (inactive)
GI50 [17]: > 100 µM (inactive)
GI50 [18]: > 100 µM (inactive)
GI50 [19]: > 100 µM (inactive)
GI50 [20]: > 100 µM (inactive)
GI50 [59]: > 100 µM (inactive)
GI50 [60]: > 100 µM (inactive)
GI50 [21]: > 100 µM (inactive)
GI50 [53]: > 100 µM (inactive)
GI50 [22]: > 100 µM (inactive)
GI50 [54]: > 100 µM (inactive)
GI50 [23]: > 100 µM (inactive)
GI50 [24]: > 100 µM (inactive)
GI50 [55]: 56.2 µM (inactive)
GI50 [25]: > 100 µM (inactive)
GI50 [26]: > 100 µM (inactive)
GI50 [27]: > 100 µM (inactive)
GI50 [28]: > 100 µM (inactive)
GI50 [29]: > 100 µM (inactive)
GI50 [31]: > 100 µM (inactive)
GI50 [32]: > 100 µM (inactive)
GI50 [33]: > 100 µM (inactive)
GI50 [34]: > 100 µM (inactive)
GI50 [35]: > 100 µM (inactive)
GI50 [36]: > 100 µM (inactive)
GI50 [57]: > 100 µM (inactive)
GI50 [37]: > 100 µM (inactive)
GI50 [38]: > 100 µM (inactive)
GI50 [39]: 38.7 µM (inactive)
GI50 [42]: > 100 µM (inactive)
GI50 [43]: > 100 µM (inactive)
GI50 [44]: > 100 µM (inactive)
GI50 [46]: 93.8 µM (inactive)
GI50 [47]: > 100 µM (inactive)

— ChEMBL document CHEMBL1201862, “PubChem BioAssay data set” (2004)
